Experimental data reported in patent US20250177351A1, “ISOINDOLINE COMPOSITIONS AND METHODS FOR TREATING NEURODEGENERATIVE DISEASE” (Cognition Therapeutics, Inc., priority 2022, published 2025).
“Also recorded” adds a separate entry of the source. Marks after values point to notes of the source that are not given here.

How the values were obtained:
CYP isoenzymes = assay: Drug interaction studies
[1] = Phase 1 multiple ascending dose (MAD) study: plasma pharmacokinetics; type: in vivo, human; set-up: CLss/F: unit not given here; conditions: for CLss/F / t1/2: MAD
Experimental: A Phase 1, two-part single and multiple ascending dose study was conducted in 7 and 4 cohorts of healthy human subjects respectively. […] In Part B, subjects were administered 280, 560, and 840 mg once daily for 14 days (8:2 A:P per cohort). An elderly cohort, age 65-75, was dosed at 560 mg once daily for 14 days (7:2 A:P). […] Cognitive testing was performed in the healthy elderly cohort at baseline and at Day 14 of treatment.
In Part B, healthy young subjects in each cohort received the same dose once daily for 14 days after overnight fasting. Cohort dosing started at 280 mg, followed by 560 mg and 840 mg in subsequent cohorts. In each cohort, eight subjects received drug and two received placebo. A fourth cohort of healthy elderly subjects (≥65 years old) received a 560 mg dose vs. placebo daily for 14 days (seven active, two placebo).
Subjects were dosed in the morning with 240 mL of water after an 8-hour fast, and remained in a semi-reclined position for 1 hour and fasting for 2 hours post-administration, except for the fed cohort in Part A. Subjects in each MAD cohort were confined to the clinical facility from check-in on Day 0 until the pharmacokinetic sample was collected on Day 16, 48 hours after administration of the last dose on Day 14. Subjects returned to the clinical facility for follow-up visits on Days 24 and 35.
In Part A, blood draws for assessment of PK parameters occurred pre-dose and at 15, 30, 45, 60, and 90 minutes post dose as well as at 2, 3, 4, 8, 12, 24, 36, and 48 hours post dose. […] In Part B, blood samples for plasma PK analysis were taken on Day 1 at pre-dose and at 2 hours post-dose, on Day 3 at pre-dose and at 15, 30 and 45 minutes and 1, 2, 3, 4, 8, 12 and 24 hours post-dose, on Days 4, 6, 8 and 10 at pre-dose and at 1.5 hours post-dose and following the final dose on Day 14 at pre-dose and 15, 30 and 45 minutes and 1, 2, 4, 8, 12, 24, 36 and 48 hours post-dose.
This was assessed by analysis of variance (ANOVA) of log-transformed Cmax, AUC0-24, AUC0-48, and/or AUC0-inf, using a model with factors for treatment (fed status or age [young vs. elderly] status) and subject within sequence. Treatment mean differences and 90% confidence intervals of the log transformed PK parameters were back-transformed, to present the geometric least squares means ratios and 90% confidence limits.

[2] = molecular target: T1, Sigma-2/PGRMC1 receptor complex (Homo sapiens, UniProt Q5BJF2); assay: Phase 1b/2a trial: pharmacokinetics and estimated brain receptor occupancy; type: in vivo; conditions: AD patients, 90-560 mg, day 28
T1 construct: from tissue; host or cells: brain of trial patients, in vivo (occupancy estimated from CSF drug concentration, not measured)
Experimental: COG0102 clinical trial: This trial (ClinicalTrials.gov NCT02907567) was a randomized, double-blind, placebo-controlled clinical trial in mild to moderate Alzheimer's patients (MMSE 18-26) (See FIG. 1 for clinical trial design). The trial was conducted at six sites in Australia. Patients were randomized into placebo (n=5) or CT1812-treated groups: 90 mg (n=4), 280 mg (n=5) or 560 mg (n=5) and treated once daily for 28 days. Clinical chemistry was done at Sydpath (Sydney, AU). Pharmacokinetics were done at CPR Pharma Services (Adelaide, AU). Cerebrospinal fluid samples were taken at screening and day 21-28 of treatment and aliquoted. […] One set of CSF samples was analyzed for Alzheimer's disease biomarkers; protein measurements (Aβ42, Aβ40, total tau, tau phosphorylated at threonine 181 (phosphorylated tau), NFL and neurogranin) were performed using commercially available ELISA assays from Fujirebio according to the manufacturer's instructions (INNOTEST β-AMYLOID(1-42), INNOTEST β-AMYLOID(1-40), INNOTEST hTau Ag, INNOTEST PHOSPHO-TAU(181P), Uman Diagnostics NFL assay). Neurogranin was measured with a sandwich ELISA method using antibodies Ng2 and Ng22 developed at the University of Gotteborg (Kvartsberg et al. 2015). Identical aliquots of CSF, and plasma were analyzed for protein expression changes via LC/MSMS at Caprion (see below).

[3] = Phase 1b/2a clinical trial (COG0102): safety, tolerability, exploratory cognitive outcomes; type: in vivo, human
Experimental: Safety and pharmacokinetics were primary objectives of the study, with changes in molecular biomarkers and cognitive outcomes identified as an exploratory objective.
Plasma and CSF protein expression were measured by LC/MSMS in samples drawn prior to dosing (Day 0) and at end of dosing (Day 28) and were compared within each patient and between dosing groups.
COG0102 clinical trial: This trial (ClinicalTrials.gov NCT02907567) was a randomized, double-blind, placebo-controlled clinical trial in mild to moderate Alzheimer's patients (MMSE 18-26) (See FIG. 1 for clinical trial design). The trial was conducted at six sites in Australia. Patients were randomized into placebo (n=5) or CT1812-treated groups: 90 mg (n=4), 280 mg (n=5) or 560 mg (n=5) and treated once daily for 28 days. Clinical chemistry was done at Sydpath (Sydney, AU). Pharmacokinetics were done at CPR Pharma Services (Adelaide, AU). Cerebrospinal fluid samples were taken at screening and day 21-28 of treatment and aliquoted. Plasma samples were taken at screening or Day 1 (one sample) and day 14-28, then spun down to separate plasma and aliquoted. One set of CSF samples was analyzed for Alzheimer's disease biomarkers; protein measurements (Aβ42, Aβ40, total tau, tau phosphorylated at threonine 181 (phosphorylated tau), NFL and neurogranin) were performed using commercially available ELISA assays from Fujirebio according to the manufacturer's instructions (INNOTEST β-AMYLOID(1-42), INNOTEST β-AMYLOID(1-40), INNOTEST hTau Ag, INNOTEST PHOSPHO-TAU(181P), Uman Diagnostics NFL assay). Neurogranin was measured with a sandwich ELISA method using antibodies Ng2 and Ng22 developed at the University of Gotteborg (Kvartsberg et al. 2015). Identical aliquots of CSF, and plasma were analyzed for protein expression changes via LC/MSMS at Caprion (see below).

[4] = MAD 560 mg, Day 14 (steady state)
[5] = age up to 64 years, 280 mg (n = 8), Day 14, mean
[6] = age up to 64 years, 560 mg (n = 8), Day 14, mean
[7] = AD patients, 28 days, 90 mg (as in Table 3)
[8] = AD patients, 28 days, 90 mg (n = 4)
[9] = AD patients, 28 days, 280 mg (as in Table 3)
[10] = AD patients, 28 days, 280 mg (n = 5)
[11] = AD patients, 28 days, 560 mg (as in Table 3)
[12] = AD patients, 28 days, 560 mg (n = 5)

T1 sequence (Q5BJF2 whole entry, one chain of several): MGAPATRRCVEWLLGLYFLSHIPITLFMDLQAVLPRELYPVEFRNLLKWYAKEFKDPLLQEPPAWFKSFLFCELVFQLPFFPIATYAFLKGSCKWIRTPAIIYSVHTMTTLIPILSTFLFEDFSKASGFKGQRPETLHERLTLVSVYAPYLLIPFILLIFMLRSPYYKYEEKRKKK

CC(C)(C)Oc1cc(CCC(C)(C)N2Cc3ccc(S(C)(=O)=O)cc3C2)ccc1O [CT1812]
interactions with CYP isoenzymes (CYP isoenzymes): minor interactions | AUC0-24h, aged cohort vs subjects under 64 years (geometric least-squares mean) ([1]; MAD 560 mg, Day 3): ~1.34 times | Cmax, aged cohort vs subjects under 64 years (geometric least-squares mean) ([1]; MAD 560 mg, Day 3): approximately 1.7 times | AUC0-24h, aged cohort vs younger subjects [1, 4]: 1.5 times | Cmax, aged cohort vs younger subjects [1, 4]: 1.6 times | increase of Cmax and AUC with dose ([1]; MAD 280 to 840 mg): slightly greater than dose proportionally | CLss/F ([1]; age at least 65 years, 560 mg (n = 7), Day 14, mean): 169^‡‡ | t1/2 ([1]; age at least 65 years, 560 mg, Day 3 (n = 4), over max. 24 hours post dose): 8.83^†† hr | CLss/F [1, 5]: 387 | t1/2 [1, 5]: 12.0 h | CLss/F [1, 6]: 296 | t1/2 [1, 6]: 12.3 h | CLss/F ([1]; age up to 64 years, dose cell prints 560 mg (n = 7), Day 14, follows 840 mg Day 3): 212^‡‡ | t1/2 ([1]; age up to 64 years, dose cell prints 560 mg (n = 7), Day 14, follows 840 mg Day 3 (n = 6)): 8.93^§ hr | accumulation in plasma ([1]; over 14 days): minimal accumulation | increase of plasma concentration with dose [2]: approximately dose proportionally | patients with lymphocytopenia ([3]; AD patients, 560 mg, 3 mild, resolved by end of study): Four | ALT in one participant ([3]; AD patients, 560 mg, resolved by end of study, no increase in bilirubin): ~4.7 ×ULN | tolerability ([3]; AD patients, 90, 280 and 560 mg, 28 days): well tolerated with no drug-related significant adverse events reported; also recorded: generally safe and well tolerated at all doses | Headache [3, 7]: 1 (25%) n (%) | Lymphocytopenia [3, 7]: 0 (0%) n (%) | Nausea [3, 7]: 0 (0%) n (%) | Vomiting [3, 7]: 0 (0%) n (%) | Mild TEAEs [3, 8]: 4 (100%) n (%) | Moderate TEAEs [3, 8]: 0 (0%) n (%) | SAEs [3, 8]: 0 (0%) n (%) | Severe TEAEs [3, 8]: 0 (0%) n (%) | TEAEs [3, 8]: 3 (75%) n (%) | Headache [3, 9]: 0 (0%) n (%) | Lymphocytopenia [3, 9]: 0 (0%) n (%) | Nausea [3, 9]: 0 (0%) n (%) | Vomiting [3, 9]: 0 (0%) n (%) | Mild TEAEs [3, 10]: 3 (60%) n (%) | Moderate TEAEs [3, 10]: 1 (20%) n (%) | SAEs [3, 10]: 0 (0%) n (%) | Severe TEAEs [3, 10]: 0 (0%) n (%) | TEAEs [3, 10]: 4 (80%) n (%) | Headache [3, 11]: 2 (40%) n (%) | Lymphocytopenia [3, 11]: 3 (60%)* n (%) | Nausea [3, 11]: 2 (40%) n (%) | Vomiting [3, 11]: 2 (40%) n (%) | Mild TEAEs [3, 12]: 5 (100%) n (%) | Moderate TEAEs [3, 12]: 3 (60%) n (%) | SAEs [3, 12]: 0 (0%) n (%) | Severe TEAEs [3, 12]: 0 (0%) n (%) | TEAEs [3, 12]: 5 (100%) n (%)
